Test results published in patent EP0007716A1, “R-N-(2-phenyl-2-hydroxyethyl)-3-phenylpropyl amines, their formulations, use and preparation” (ELI LILLY AND COMPANY, priority 1978, dated 1980).

Tested on: dogs with induced myocardial infarction
Test: Inotropic potency on intravenous administration to dogs with induced myocardial infarction
Assay type: in vivo
Settings: for ED50: Canis lupus familiaris, dose required to effect a fifty percent increase in contractility, four dogs with induced myocardial infarction, read-out: Contractile potency (mcg./kg.)ED50; for Blood pressure change (mm/Hg)ED50: change in blood pressure attributable to the drug at the ED50 dose; for Blood pressure change (mm/Hg)ED50 / Heart rate increase (beats/min.)ED50: dogs with induced myocardial infarction; for Heart rate increase (beats/min.)ED50: increase in heart rate observed at the ED50 dose
Procedure: The compounds provided by this invention have been evaluated for their inotropic potency in anesthetized dogs and in conscious dogs with implanted cardiovascular transducers. The heart rate, cardiac output, systolic pressure and the derivative of the left ventricular pressure, which is the index of cardiac contractility, were measured.
Column 1 lists the compounds evaluated according to the test. Each of the compounds evaluated was administered intravenously to four dogs with induced myocardial infarction. Column 2 records the contractile potency of each compound as the dose in mcg./kg. of body weight required to effect a fifty percent increase in contractility (ED50). Column 3 presents the increase in heart rate observed at the EDSO dose. Column 4 records the change in blood pressure attributable to the administered drug.

SMILES | ED50 [µg/kg] | Blood pressure change (mm/Hg)ED50 | Heart rate increase (beats/min.)ED50 [beats/min.]
Oc1ccc([C@@H](O)CNCCCc2cccc(O)c2)cc1 [R-N-[2-(4-hydroxyphenyl)-2-hydroxyethyl]-3-(3-hydroxyphenyl)propylamine] | 1 | -4 mm/Hg | 16
Oc1ccc(CCCNC[C@H](O)c2cccc(O)c2)cc1 [R-N-[2-(3-hydroxyphenyl)-2-hydroxyethyl]-3-(4-hydroxyphenyl)propylamine] | 5 | +1 mm/Hg | 12
Oc1cccc(CCCNC[C@H](O)c2cccc(O)c2)c1 [R-N-[2-(3-Hydroxyphenyl)-2-hydroxyethyl]-3-(3-hydroxyphenyl)propylamine] | 1 | +7 mm/Hg | 14
Oc1ccc(CCCNC[C@H](O)c2ccc(O)cc2)cc1 [R-N-[2-(4-hydroxyphenyl)-2-hydroxyethyl]-3-(4-hydroxy-phenyl)propylamine] | 4 | +4 mm/Hg | 10
